Laboratory results taken from ChEMBL document CHEMBL1201862, “PubChem BioAssay data set” (2004).
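All cell lines were grown in 96-well plates and treated with compound for 48 hours. GI50: concentration for 50% inhibition of growth.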 The source made the active and inactive calls. No stated cut-off is given here; in the data, active = GI50 up to about 1.1 µM and inactive = higher. Square brackets hold non-standard residues; d marks the D form. Peptide text beside a SMILES is read from it. pGlu = O=C1CC[C@@H](C(=O)O)N1; Thz = O=C(O)[C@@H]1CSCN1

Columns and labels:
Experiment in all cases: NCI tumour cell line growth inhibition, 48 h
M14 = test system: M14
MOLT-4 = test system: MOLT-4
K562 = test system: K562
Hs-578T = test system: Hs-578T
UACC-62 = test system: UACC-62
UACC-257 = test system: UACC-257
PC-3 = test system: PC-3
TK-10 = test system: TK-10
EKVX = test system: EKVX
MDA-MB-435 = test system: MDA-MB-435
CAKI-1 = test system: CAKI-1
U-251 = test system: U-251
NCI-H460 = test system: NCI-H460
MDA-MB-231 = test system: MDA-MB-231
ACHN = test system: ACHN
HT-29 = test system: HT-29
A549 = test system: A549
KM12 = test system: KM12
IGROV-1 = test system: IGROV-1
HCC 2998 = test system: HCC 2998

Structure (SMILES)	GI50 (M14)	GI50 (MOLT-4)	GI50 (K562)	GI50 (Hs-578T)	GI50 (UACC-62)	GI50 (UACC-257)	GI50 (PC-3)	GI50 (TK-10)	GI50 (EKVX)	GI50 (MDA-MB-435)	GI50 (CAKI-1)	GI50 (U-251)	GI50 (NCI-H460)	GI50 (MDA-MB-231)	GI50 (ACHN)	GI50 (HT-29)	GI50 (A549)	GI50 (KM12)	GI50 (IGROV-1)	GI50 (HCC 2998)
CN(C(=O)Nc1ccc(Cl)c(Cl)c1)C1CCCC[C@@H]1N1CCCC1 (stereo not given in full)	19.1 µM (inactive)	19.6 µM (inactive)	24.2 µM (inactive)	33.7 µM (inactive)	22.9 µM (inactive)	18.8 µM (inactive)	41.4 µM (inactive)	33.3 µM (inactive)	47.5 µM (inactive)	33 µM (inactive)	70.6 µM (inactive)	53.7 µM (inactive)	36.6 µM (inactive)	47.9 µM (inactive)	52 µM (inactive)	29.4 µM (inactive)	61.2 µM (inactive)	39.5 µM (inactive)	41.3 µM (inactive)	
Cc1cc(C(O)CNC(C)CCn2cnc3c2c(=O)n(C)c(=O)n3C)ccc1O (stereo not given)	> 100 µM (inactive)	> 100 µM (inactive)	> 100 µM (inactive)	> 100 µM (inactive)	> 100 µM (inactive)	> 100 µM (inactive)	> 100 µM (inactive)	> 100 µM (inactive)	> 100 µM (inactive)	> 100 µM (inactive)	> 100 µM (inactive)	> 100 µM (inactive)	> 100 µM (inactive)	> 100 µM (inactive)	> 100 µM (inactive)	> 100 µM (inactive)	> 100 µM (inactive)	> 100 µM (inactive)	> 100 µM (inactive)	
CC1=C(C#N)C(=C(C#N)C#N)OC1(C)Cc1ccccc1 (stereo not given)	30.8 µM (inactive)	34.3 µM (inactive)	39.6 µM (inactive)	30 µM (inactive)	20.6 µM (inactive)	49.4 µM (inactive)	36.2 µM (inactive)	36.4 µM (inactive)	45.9 µM (inactive)	> 100 µM (inactive)	24.7 µM (inactive)	> 100 µM (inactive)		47.9 µM (inactive)	18.5 µM (inactive)	32.7 µM (inactive)	56.8 µM (inactive)	55.5 µM (inactive)	51.3 µM (inactive)	29.5 µM (inactive)
CCC(=O)O[C@H]1CC[C@H]2[C@@H]3CCC4=C/C(=N/OC(=O)c5cccc6cc7ccccc7nc56)CC[C@]4(C)[C@H]3CC[C@]12C	64.1 µM (inactive)	> 100 µM (inactive)	> 100 µM (inactive)	39.6 µM (inactive)	27.8 µM (inactive)	63.4 µM (inactive)	29 µM (inactive)		53.6 µM (inactive)	38.8 µM (inactive)	> 100 µM (inactive)	51.9 µM (inactive)	39.1 µM (inactive)	> 100 µM (inactive)	> 100 µM (inactive)	42.9 µM (inactive)	71.1 µM (inactive)	40.7 µM (inactive)	11.5 µM (inactive)	> 100 µM (inactive)
CC(CCc1ccccc1)NCC(O)n1c(/N=N/N(C)C)nc2c1c(=O)n(C)c(=O)n2C (stereo not given)	> 100 µM (inactive)	> 100 µM (inactive)	> 100 µM (inactive)	> 100 µM (inactive)	> 100 µM (inactive)	> 100 µM (inactive)	> 100 µM (inactive)	> 100 µM (inactive)	> 100 µM (inactive)	> 100 µM (inactive)	88.7 µM (inactive)	> 100 µM (inactive)	41.1 µM (inactive)	> 100 µM (inactive)	> 100 µM (inactive)	> 100 µM (inactive)	> 100 µM (inactive)	> 100 µM (inactive)	> 100 µM (inactive)	
O=C1CC[C@@H](C(=O)N2CSC[C@H]2C(=O)O)N1 [PIDOTIMOD] ([pGlu]-[Thz]-OH)	> 100 µM (inactive)	> 100 µM (inactive)	> 100 µM (inactive)	> 100 µM (inactive)	> 100 µM (inactive)	> 100 µM (inactive)	> 100 µM (inactive)	> 100 µM (inactive)		> 100 µM (inactive)	> 100 µM (inactive)		> 100 µM (inactive)	> 100 µM (inactive)	> 100 µM (inactive)	> 100 µM (inactive)	> 100 µM (inactive)	> 100 µM (inactive)	> 100 µM (inactive)	> 100 µM (inactive)
CSc1c(C(=O)Nc2ccc(Cl)cc2)c(N)n(N)c(=O)c1C#N	51.6 µM (inactive)	76.9 µM (inactive)	46.6 µM (inactive)	> 100 µM (inactive)	24.5 µM (inactive)	> 100 µM (inactive)	79.8 µM (inactive)	> 100 µM (inactive)	> 100 µM (inactive)	> 100 µM (inactive)	34.2 µM (inactive)	> 100 µM (inactive)	> 100 µM (inactive)	> 100 µM (inactive)		> 100 µM (inactive)	> 100 µM (inactive)	45.9 µM (inactive)		54.1 µM (inactive)
CN(C)c1ccc2nc3c(C(=O)O)cc(O)c(O)c3[o+]c2c1	21.7 µM (inactive)	14.4 µM (inactive)	22.4 µM (inactive)	68.4 µM (inactive)	20 µM (inactive)	14.8 µM (inactive)	36.5 µM (inactive)	21.8 µM (inactive)	26.4 µM (inactive)	21.2 µM (inactive)	52.8 µM (inactive)	29.7 µM (inactive)	24.8 µM (inactive)	33 µM (inactive)	31.5 µM (inactive)	38.5 µM (inactive)	> 100 µM (inactive)	26.9 µM (inactive)	92.3 µM (inactive)	
Cc1c(/C=N/NC(=S)Nc2ccc([N+](=O)[O-])cc2)c(=O)n(-c2ccccc2)n1C	11.2 µM (inactive)	9.48 µM (inactive)	47.1 µM (inactive)	15.8 µM (inactive)	17.6 µM (inactive)	30.9 µM (inactive)	19.1 µM (inactive)	11.8 µM (inactive)	10.1 µM (inactive)	> 100 µM (inactive)	6.85 µM (inactive)	15.6 µM (inactive)		20.7 µM (inactive)	11.5 µM (inactive)	12.9 µM (inactive)		13.1 µM (inactive)	12.5 µM (inactive)	42.3 µM (inactive)
CCOC(=O)NN(C(=O)OCC)c1ccc(/N=N/c2ccc(OC)cc2)n1C	22.8 µM (inactive)	43.7 µM (inactive)	23.1 µM (inactive)	65.8 µM (inactive)	99.1 µM (inactive)	23.1 µM (inactive)	15.3 µM (inactive)	44.2 µM (inactive)	> 100 µM (inactive)	22.7 µM (inactive)		29.9 µM (inactive)		19.8 µM (inactive)	23.6 µM (inactive)	22.4 µM (inactive)	23 µM (inactive)	24 µM (inactive)	29 µM (inactive)	31.3 µM (inactive)
CCO/C(=N/S(=O)(=O)C(F)(F)F)N(C(C)C)C(C)C	> 100 µM (inactive)	> 100 µM (inactive)		> 100 µM (inactive)	> 100 µM (inactive)	> 100 µM (inactive)	> 100 µM (inactive)	> 100 µM (inactive)	> 100 µM (inactive)	> 100 µM (inactive)	> 100 µM (inactive)	> 100 µM (inactive)	> 100 µM (inactive)	> 100 µM (inactive)	> 100 µM (inactive)	> 100 µM (inactive)	> 100 µM (inactive)	> 100 µM (inactive)	> 100 µM (inactive)	
O=C(CCCl)NN=C1NCCN1	> 100 µM (inactive)	> 100 µM (inactive)	> 100 µM (inactive)	> 100 µM (inactive)	> 100 µM (inactive)	> 100 µM (inactive)	> 100 µM (inactive)	> 100 µM (inactive)	> 100 µM (inactive)	> 100 µM (inactive)		> 100 µM (inactive)	> 100 µM (inactive)	> 100 µM (inactive)	> 100 µM (inactive)	> 100 µM (inactive)	> 100 µM (inactive)	> 100 µM (inactive)	> 100 µM (inactive)	> 100 µM (inactive)
O=C1/C(=C\c2ccc([N+](=O)[O-])o2)SC2NC(COc3ccc(Cl)cc3)=NN12 (stereo not given)	2.31 µM (inactive)	3.02 µM (inactive)	2.99 µM (inactive)	24.4 µM (inactive)		5.09 µM (inactive)	9.73 µM (inactive)	17.6 µM (inactive)	5.83 µM (inactive)	4.2 µM (inactive)	13.1 µM (inactive)	19.3 µM (inactive)	19.2 µM (inactive)	3.31 µM (inactive)	1.96 µM (inactive)	6.05 µM (inactive)	18.3 µM (inactive)	13.7 µM (inactive)	3.15 µM (inactive)	
COc1cc(C(=O)OC2CC(C)=CC[C@@]3(C)CC[C@](O)(C(C)C)C23)ccc1O (stereo not given in full)	17 µM (inactive)	13.2 µM (inactive)	17.4 µM (inactive)	17.3 µM (inactive)		15.5 µM (inactive)	17.4 µM (inactive)	15 µM (inactive)	18.9 µM (inactive)	40.5 µM (inactive)	16.3 µM (inactive)	31.3 µM (inactive)	16.6 µM (inactive)	15 µM (inactive)	18.4 µM (inactive)	15.9 µM (inactive)	12.9 µM (inactive)	15.9 µM (inactive)	19 µM (inactive)	14.5 µM (inactive)
COC1C(O)C(C)OC(OC2C(Oc3cccc4c(O)c5c(=O)oc6ccc(C)c7c(=O)oc(c34)c5c67)OC(C)C3O[C@H](c4ccccc4)OC32)C1O (stereo not given in full)	0.851 µM (active)			0.531 µM (active)	0.14 µM (active)		0.361 µM (active)	1.06 µM (active)	1.24 µM (inactive)		0.207 µM (active)	0.196 µM (active)	0.0195 µM (active)	0.845 µM (active)	0.0378 µM (active)	0.0877 µM (active)	0.0286 µM (active)		0.0681 µM (active)	0.453 µM (active)
